{"source": "patent US20240108687A1", "about": "“COMPOSITIONS AND METHODS FOR USING COMBINATIONS OF ACTIN-BASED PEPTIDES TO MODULATE CELLULAR BIOACTIVITY” (Virongy L.L.C., priority 2021, published 2024)", "key": {"HIV-1 [1]": {"test_system": "HIV-1", "conditions": "CD4 T lymphocytes; cited from earlier work"}, "Influenza A virus (IAV) [2]": {"test_system": "Influenza A virus (IAV)", "conditions": "cited from earlier work"}, "Influenza A virus (IAV) [3]": {"test_system": "Influenza A virus (IAV)", "conditions": "IAV-infected mice vs solvent-treated control; cited from earlier work"}, "[4]": {"test_system": "Murine leukemia virus (MLV), Avian leukosis virus (ALV), and Human immunodeficiency virus (HIV)", "conditions": "HEK293T cells transfected with viral receptors; cited from earlier work"}, "HIV-1 [5]": {"test_system": "HIV-1", "conditions": "cited from earlier work"}, "Measles virus (MeV)": {"test_system": "Measles virus (MeV)", "conditions": "cited from earlier work"}, "Influenza A virus (IAV) [6]": {"test_system": "Influenza A virus (IAV)", "conditions": "MDCK cells; cited from earlier work"}, "Influenza A virus (IAV) [7]": {"test_system": "Influenza A virus (IAV)", "conditions": "cited from earlier work", "remark": "listed apart in the source"}, "HIV-1 [8]": {"test_system": "HIV-1", "conditions": "cited from earlier work", "remark": "listed apart in the source"}, "[9]": {"test_system": "Lenti-GFP virion particles", "experiment": "Lentiviral virion infectivity after virion incorporation of actin-based peptide", "conditions": "virions first incubated with peptide to allow virion incorporation; equal amount of virions", "description": "(A) Uninfected cells control. (B) Lenti-GFP virion particles were used to directly infect target cells. […] An equal amount of virion particles in (B) and (C) were used for infection. Virion infectivity was measured by the percentage of GFP+ cells."}, "[10]": {"test_system": "lenti-GFP vector viral particles", "experiment": "Lentiviral vector (lenti-GFP) transduction of cells, flow cytometry", "conditions": "B11-20AA plus polybrene, 3 days post infection, viable cells (low PI)", "description": "Viral transduction of cells was measured at 3 days post infection by flow cytometry. (A) uninfected cells control. (B) Cells were infected with a lenti-GFP vector viral particles. […] Transduction efficiency was measured by the percentage of GFP+ cells. PI,_propidium iodide, was added before flow cytometry for cytotoxicity control (FL3). GFP+ cells were counted only when the cells are viable (low PI staining)."}, "HEK293T cells": {"test_system": "HEK293T cells", "experiment": "Liposome transfection of GFP-expression vector DNA with actin-based peptide", "assay_type": "cell-based", "conditions": "Lenti-GFP DNA + liposome + peptide, 48 hours post transfection", "method": "FIG. 6: Example of combination of actin-based peptide with liposome to deliver nucleic acids into cells. HEK293T cells were transfected with a GFP-expression vector DNA (Lenti-GFP) in complex with liposome (DNA+Lipo) or with liposome and an actin-based peptide (N9-A20) (DNA+Lipo+N9). Following transfection, cells were quantified for GFP expression at 48 hours post transfection by flow cytometry."}, "CD325 (N-cadherin)": {"test_system": "CD325 (N-cadherin)", "experiment": "Surface expression of CD325 on H9 lymphocytes, flow cytometry", "assay_type": "cell-based, Human", "conditions": "H9 lymphocytes treated 40 minutes", "method": "(§1) FIG. 7: Example of actin-based peptide to enhance surface expression of multiple cellular receptors including CD325 (N-cadherin), CD144 (VE-cadherin), and CD324 (E-cadherin), which are surface molecule for cell-cell and cell-extracellular matrix binding and adhesion. (A) Human H9 lymphocyte (derivative of HutT 78 cell, from ATCC) were not treated or treated with an actin-based peptide (N7-20AA) for 40 minutes. Cells were stained on ice with PerCy-Cy5.5-labeled mouse anti-human CD325 antibody. Surface expression of CD325 before and after N7-20AA was quantified by flow cytometer. […] (B) Human H9 lymphocyte were not treated or treated with an actin-based peptide (N7-20AA) for 40 minutes. Cells were stained on ice with FITC-labeled mouse anti-human CD144 antibody. Surface expression of CD144 before and after N7-20AA was quantified by flow cytometer. […] (C) Human H9 lymphocyte were not treated or treated with an actin-based peptide (N7-20AA) for 40 minutes. Cells were stained on ice with PE-labeled mouse anti-human CD324 antibody. Surface expression of CD324 before and after N7-20A was quantified by flow cytometer."}, "CD144 (VE-cadherin)": {"test_system": "CD144 (VE-cadherin)", "experiment": "Surface expression of CD144 on H9 lymphocytes, flow cytometry", "assay_type": "cell-based, Human", "conditions": "H9 lymphocytes treated 40 minutes", "method": "as §1"}, "CD324 (E-cadherin)": {"test_system": "CD324 (E-cadherin)", "experiment": "Surface expression of CD324 on H9 lymphocytes, flow cytometry", "assay_type": "cell-based, Human", "conditions": "H9 lymphocytes treated 40 minutes", "method": "as §1"}}, "data": [{"compound": "O=C1CSC(c2cccc(Br)c2)N1c1cc(Cl)ccc1O", "note": "(stereo not drawn) [CK-548]", "values": [{"measurement": "CD4 T cell activation and cytotoxicity at effective dosages", "setting": "HIV-1 [1]", "value": "did not affect CD4 T cell activation or induce cytotoxicity"}, {"measurement": "HIV-1 replication", "setting": "HIV-1 [1]", "value": "dramatically reduced HIV-1 replication"}]}, {"compound": "CCN(CC)CCCC(C)Nc1nc(C)cc(Nc2ccc3nc(C)cc(N)c3c2)n1", "note": "(stereo not drawn) [NSC23766]", "values": [{"measurement": "IC50", "setting": "Influenza A virus (IAV) [2]; A549 cells, read-out: IC50, reduction of viral replication", "value": 22, "unit": "µM"}, {"measurement": "Viral protein expression", "setting": "Influenza A virus (IAV) [2]", "value": "reduced viral protein expression"}, {"measurement": "Body weights", "setting": "Influenza A virus (IAV) [3]", "value": "increased body weights"}, {"measurement": "Survivability", "setting": "Influenza A virus (IAV) [3]", "value": "higher survivability"}, {"measurement": "Titer of IAV in lung tissue", "setting": "Influenza A virus (IAV) [3]", "value": "reduce titer of IAV in lung tissue"}]}, {"compound": "Cc1ccc2c(c1)C(=O)C1(O)CCN(c3ccccc3)C1=N2", "note": "(stereo not drawn) [blebbistatin]", "values": [{"measurement": "Virus surfing", "setting": "[4]", "value": "eliminated virus surfing"}]}, {"compound": "C=C1[C@@H](C)[C@H]2[C@H](Cc3ccccc3)NC(=O)[C@]23[C@H](OC(C)=O)/C=C/[C@@](C)(O)C(=O)[C@@H](C)C/C=C/[C@H]3[C@@H]1O", "note": "[cytochalasin D]", "values": [{"measurement": "Accumulation of early and late reverse transcription products", "setting": "HIV-1 [5]; pretreating cells, not 2 hours post-infection", "value": "reduced the accumulation of early and late reverse transcription products"}, {"measurement": "Reduction of nuclear accumulation of late RT products", "setting": "HIV-1 [5]; pretreatment", "value": 25, "unit": "fold"}, {"measurement": "Virus surfing", "setting": "[4]", "value": "eliminated virus surfing"}, {"measurement": "Actin and H co-immunoprecipitation with M protein", "setting": "Measles virus (MeV)", "value": "dramatically reduced actin co-immunoprecipitating with M, while enhancing H co-immunoprecipitation"}, {"measurement": "Co-transport of M-RNP to the cell surface", "setting": "Measles virus (MeV)", "value": "reduces co-transport of M-RNP to the cell surface"}, {"measurement": "Rate of cell-cell fusion", "setting": "Measles virus (MeV)", "value": "enhanced the rate of cell-cell fusion"}, {"measurement": "Distribution of plasma membrane HA, lipid rafts and actin", "setting": "Influenza A virus (IAV) [6]", "value": "dramatically redistributed"}, {"measurement": "Titers of filamentous and spherical virions", "setting": "Influenza A virus (IAV) [7]", "value": "dramatically abrogated the titers of the filamentous, but not spherical, virions"}]}, {"compound": "C/C1=C\\[C@H](C)C[C@H](C)OC(=O)C[C@H](c2ccc(O)cc2)NC(=O)[C@@H](Cc2c(Br)[nH]c3ccccc23)N(C)C(=O)[C@H](C)NC(=O)[C@@H](C)C1", "note": "[jasplakinolide]", "values": [{"measurement": "Co-transport of M-RNP to the cell surface", "setting": "Measles virus (MeV)", "value": "not affecting M-RNP co-transport"}, {"measurement": "Free-virus production", "setting": "Measles virus (MeV)", "value": "blocked free-virus production"}, {"measurement": "Distribution of plasma membrane HA, lipid rafts and actin", "setting": "Influenza A virus (IAV) [6]", "value": "dramatically redistributed"}]}, {"compound": "C/C1=C/C(=O)O[C@@H]2C[C@@H](CC[C@H](C)/C=C\\C=C\\CC1)O[C@@](O)([C@@H]1CSC(=O)N1)C2", "note": "[latrunculin A]", "values": [{"measurement": "gag mRNA localisation", "setting": "HIV-1 [8]", "value": "caused retention of gag mRNA in the nucleus"}, {"measurement": "Distribution of plasma membrane HA, lipid rafts and actin", "setting": "Influenza A virus (IAV) [6]", "value": "dramatically redistributed"}]}, {"compound": "RRRRRRRR(G/A)0-20DIKEKLCYVALDFEQEMATA [B11-20AA]", "values": [{"measurement": "Virion infectivity (percentage of GFP+ cells)", "setting": "[9]", "value": "Enhancement of lentiviral virion infectivity"}, {"measurement": "Transduction efficiency (percentage of GFP+ cells)", "setting": "[10]", "value": "Enhancement of lentiviral vector transduction"}]}, {"compound": "RRRRRRRR(G/A)0-20HTVPIYEGYALPHAILRLDL [N9-A20]", "values": [{"measurement": "Delivery of nucleic acids into cells (GFP expression)", "setting": "HEK293T cells", "value": "enhances delivery of nucleic acids into cells"}]}, {"compound": "RRRRRRRR(G/A)0-20QIMFETFNTPAMYVAIQAVL [N7-20AA]", "values": [{"measurement": "Surface expression of CD325", "setting": "CD325 (N-cadherin)", "value": "up-regulation of surface expression of CD325"}, {"measurement": "Surface expression of CD144", "setting": "CD144 (VE-cadherin)", "value": "up-regulation of surface expression of CD144"}, {"measurement": "Surface expression of CD324", "setting": "CD324 (E-cadherin)", "value": "up-regulation of surface expression of CD324"}]}]}
